Experimental data from patent US6610748B1, “Preventives/remedies for skin aging” (Fujisawa Pharmaceutical Co., Ltd., priority 1998, dated 2003).
Entries after “also recorded” stand apart in the source; their conditions may differ. Counter-ions that a name gives are not always drawn. Like-named read-outs stand apart in the source and are kept apart here.

How the values were obtained:
hairless dogs [1] = test: Skin thickness: thickness of the epidermis (excluding the horny layer) in H-E stained tissue samples of old hairless dogs; assay type: in vivo, dog; conditions: for Thickness of the epidermis, value after the arrow (after treatment): FK706 0.2% topical once daily for 3 months; for Thickness of the epidermis, value after the arrow (after treatment) / Thickness of the epidermis, value before the arrow (initial): mean±SD
Protocol: (§1) The therapeutic efficacy of neutrophil (leukocyte) elastase inhibitors in “dermal aging” was evaluated in hairless dogs.
(§2) Two adult (old) experimental hairless dogs constructed by cross-breeding of a Mexican hairless dog and a beagle dog were used. Old dogs presenting with age-associated fine “wrinkles” , not observed in young dogs, on the body surface were used as subject animals.
(§3) Each drug was applied in one location (a total of 5 locations) on the back (5×5 cm) of each dog. The drug was applied in a dosing volume of about 4 μL/cm^2 once daily (except on Saturdays, Sundays and holidays) for 3 months.

hairless dogs [2] = test: Skin condition (remission of wrinkles) in old hairless dogs, gross observation and video macroscope; assay type: in vivo, dog; conditions: 0.2% and 0.02% in PEG
Protocol: as §1, §2
5) Polyethylene glycol (PEG) (solvent control) (PEG was used as the solvent for drugs 1˜4)
as §3
1) Skin condition: Gross observation and observation with a video macroscope

hairless dogs [3] = test: Histology of biopsy samples from old hairless dogs (van Gieson's stain, Weigert's stain); assay type: in vivo; conditions: Dog No. 8807, 3 months
Protocol: The therapeutic efficacy of neutrophil (leukocyte) elastase inhibitors in “dermal aging” was evaluated in hairless dogs. Two adult (old) experimental hairless dogs constructed by cross-breeding of a Mexican hairless dog and a beagle dog were used. Old dogs presenting with age-associated fine “wrinkles” , not observed in young dogs, on the body surface were used as subject animals. Each drug was applied in one location (a total of 5 locations) on the back (5×5 cm) of each dog. The drug was applied in a dosing volume of about 4 μL/cm^2 once daily (except on Saturdays, Sundays and holidays) for 3 months. 2) Histology: Observation of histological changes in biopsy samples by H-E (hematoxylin-eosin) stain (general staining) , van Gieson's stain (staining of collagen fiber) and Weigert's stain (staining of elastin fiber)

[4] = qualitative, by solvent, cited from earlier work
[5] = gross observation, dog No. 8807 (10 yr old, male), about 4 μL/cm2 on the back once daily for 3 months
[6] = gross observation, dog No. 8808 (10 yr old, female), about 4 μL/cm2 on the back once daily for 3 months
[7] = observation with a video macroscope, dog No. 8807, once daily for 3 months
[8] = observation with a video macroscope, dog No. 8808, once daily for 3 months

Row | Compound | Thickness of the epidermis, value after the arrow (after treatment) (hairless dogs [1]; Dog No. 8807) | Thickness of the epidermis, value before the arrow (initial) (hairless dogs [1]; Dog No. 8807, location treated with FK706 0.2%) | Thickness of the epidermis, value after the arrow (after treatment) (hairless dogs [1]; Dog No. 8808) | Thickness of the epidermis, value before the arrow (initial) (hairless dogs [1]; Dog No. 8808, location treated with FK706 0.2%) | Change in thickness of the epidermis (hairless dogs [1]; location treated with FK706 0.2%, p<0.05 in both Dog 8807 and Dog 8808) | Order of efficacy in the elimination or remission of wrinkles (hairless dogs [2]; [5]) | Order of efficacy in the elimination or remission of wrinkles (hairless dogs [2]; [6]) | Order of efficacy in the elimination or remission of wrinkles (hairless dogs [2]; [7]) | Order of efficacy in the elimination or remission of wrinkles (hairless dogs [2]; [8]) | Histological finding, Weigert's stain (elastin fiber) (hairless dogs [3]; topical) | Histological finding, van Gieson's stain (collagen fiber) (hairless dogs [3]; FK706 0.2% topical) | Solubility ([4]; disodium salt) | Solubility ([4]; dipotassium salt)
1 | CC(C)C(NC(=O)[C@@H]1CCCN1C(=O)[C@@H](NC(=O)c1ccc(C(=O)NCC(=O)O)cc1)C(C)C)C(=O)C(F)(F)F (mixture of isomers) [FK706, 3 (RS)-[[4-(carboxymethylaminocarbonyl)phenyl-carbonyl]-L-valyl-L-prolyl]amino-1,1,1-trifluoro-4-methyl-2-oxopentane] | 26.8±5.9 μm | 17.0±1.9 μm | 42.0±9.0 μm | 24.6±3.6 μm | increased significantly | FK706·0.1%>FK706·0.02%>FR134043·0.2%=FR134043·0.02% | FK706·0.2%>FK706·0.02%>FR134043·0.2%=FR134043·0.02% | FK706·0.2%>FK706·0.02%>FR134043·0.2%>FR134043·0.02% | FK706·0.2%=FK706·0.02%>FR134043·0.2%=FR134043 0.02% | Growth of elastin fibrils (suspected to be oxytalan fiber which is said to disappear as increasing age) was found across the boundary between the epidermis and dermis | Neogenesis of a thin layer of collagen fiber was found across the boundary between the epidermis and dermis |  | 
2 | C/C=C1\NC(=O)C2NC(=O)C(NC(=O)C(C)C)CCCNC(=O)Nc3cc(OS(=O)(=O)O)c(OS(=O)(=O)O)cc3C[C@@H](C(=O)NC(C(C)C)C(=O)OC2C)N(C)C(=O)C(Cc2ccccc2)N2C(=O)[C@H](CC[C@H]2O)NC1=O (some centres unmarked) [FR134043, WS7622A disulfate ester disodium salt] |  |  |  |  |  | FK706·0.1%>FK706·0.02%>FR134043·0.2%=FR134043·0.02% | FK706·0.2%>FK706·0.02%>FR134043·0.2%=FR134043·0.02% | FK706·0.2%>FK706·0.02%>FR134043·0.2%>FR134043·0.02% | FK706·0.2%=FK706·0.02%>FR134043·0.2%=FR134043 0.02% |  |  | Soluble: water, methanol; also recorded: Insoluble: chloroform, n-hexane | 
3 | WS7622A disulfate ester dipotassium salt |  |  |  |  |  |  |  |  |  |  |  |  | Soluble: water, methanol; also recorded: Insoluble: chloroform, n-hexane
